# Experimental data: patent US10414778B2, “Methods for treatment of resistant cancer” (New Mexico Tech University Research Park Corporation, priority 2016, dated 2019)
# What was measured:
# A549 cells = experiment: MTT growth inhibition, A549 NSCLC; assay type: cell-based, human
# Protocol: Human cancer cell lines were obtained from the American Type Culture Collection (ATCC, Manassas, Va., USA), the European Collection of Cell Culture (ECACC, Salisbury, UK), and the Deutsche Sammlung von Mikroorganismen und Zellkulturen (DSMZ, Braunschweig, Germany). Human cervical adenocarcinoma HeLa cells were cultured in DMEM supplemented with 10% fetal bovine serum (FBS). Human mammary carcinoma MCF-7 cells were cultured in RPMI supplemented with 10% FBS. The U87 cells (ATCC HTB-14) were cultured in DMEM culture medium, while the A549 cells (DSMZ ACC107) were cultured in RPMI culture medium supplemented with 10% heat-inactivated FBS. The GBM Hs683 (ATCC HTB-138) and the T98G (ATCC CRL-1690) cell lines were cultivated in DMEM supplemented with 10% FBS. The GBM U251 cells (ECACC code 09063001) were cultured in 10% MEM. The human uterine sarcoma MES-SA and MES-SA/Dx5 cells were cultured in RPMI-1640 medium supplemented with 10% FBS with MES SA/Dx5 maintained in the presence of 500 nM Doxorubicin (Sigma™). The U373 glioblastoma cells (ECACC 08061901) were cultured in RPMI culture medium supplemented with 10% heat-inactivated FBS.
# All compounds were dissolved in DMSO at a concentration of either 100 mM or 50 mM prior to cell treatment. The cells were trypsinized and seeded at various cell concentrations depending on the cell type. The cells were grown for 24 h to 72 h, treated with compounds at concentrations ranging from 0.001 to 100 μM, and incubated for 48, 72, or 96 h in 100 or 200 μL media depending on the cell line used. Cells treated with 0.1% DMSO were used as a negative control, and cells treated with 1 μM phenyl arsine oxide (PAO) were used as a positive control.
# Drug-resistant cell lines (i.e., glioma: Hs683, U373, U251, U87, T98G; lung cancer: A549, H2073; uterine carcinoma: MES-SA/Dx5) were complemented with drug-sensitive cell lines, H1993 lung cancer and MES-SA uterine cancer, which were used as controls. […] The GI50 values were calculated after 48-96 hours of treatment with the indicated compounds in replicate using the MTT growth assay.
# Compounds 5l and 5g were further tested using the A549 lung cancer cell line to determine a dose-response effect on apoptosis-resistant cells. (FIGS. 4-7). […] The MTT assay was performed in four replicates after 48 hours of treatment with the indicated compounds relative to a DMSO control.
# GBM 090909 cells = experiment: MTT growth inhibition, primary GBM-derived neurosphere culture GBM 090909; assay type: cell-based; conditions: Homo sapiens, Table 3, 48-96 h treatment, read-out: GI50 in vitro values, glioma GBM 090909
# Protocol: (§1) Cell culture media were supplemented with 4 mM glutamine (Lonza code BE17-605E), 100 μg/mL gentamicin (Lonza code 17-5182), and penicillin-streptomycin (200 units/ml and 200 μg/ml) (Lonza code 17-602E). Primary GBM-derived neurosphere cultures from a patient undergoing surgical debulking were established using previously described methods. Briefly, resected tumor tissue was minced with a sterile scalpel and dissociated in 3 mL of neurobasal (NB) media containing 100 U/mL of collagenase (Life Technologies™) for 30 minutes at 37° C. Dissociated tissue was then vortexed and filtered using a sterile 70 um nylon Falcon™ cell strainer (Corning™). […]
# (§2) Compound 4l was evaluated for in vitro growth inhibition against a panel of cancer cell lines, including U373, U251, U87, T98G, human GBM, and A549 NSCLC. […] Compound 4l was also evaluated for in vitro growth inhibition against the apoptosis-sensitive tumor model Hs683 anaplastic oligodendroglioma as a reference.
# GBM 031810 cells = experiment: MTT growth inhibition, primary GBM-derived neurosphere culture GBM 031810; assay type: cell-based; conditions: Homo sapiens, Table 3, 48-96 h treatment, read-out: GI50 in vitro values, glioma GBM 031810
# Protocol: as §1, §2
"GI50 (A549 cells; Homo sapiens, Table 5, 48-96 hours of treatment, read-out: GI50, Lung Cancer A549) [µM]",Structure (SMILES),"anti-proliferative activity, dose-response (absorbance at 595 nm) (A549 cells; 48 hours, up to 100 μM, FIGS. 4-7)",GI50 (GBM 090909 cells) [µM],GI50 (GBM 031810 cells) [µM]
4,O=C1C=C[C@]23CC[N@](Cc4c2sc2ccccc42)[C@H]3C1 [Compound 5l],inhibited proliferation of the cells in a dose-dependent manner,–,–
–,O=C1C=CC2(C=C1)CCN(C(=O)C(F)(F)F)Cc1c2sc2ccccc12 [Compound 4l],–,7,8
